Results from BindingDB's records for patent US20240336562 (Hangzhou Innogate Pharma, 2024).

Molecular target: NACHT, LRR and PYD domains-containing protein 3 (Homo sapiens, UniProt Q96P20)
Experiment: Inhibitory Activity of NLRP3
Experimental: ELISA plate, and incubated at 4° C. overnight. Discard the liquid in the ELISA plate and wash it 4 times with eluent. Add 300 μL/well reagent diluent and incubate the ELISA plate at room temperature for 1.5 hours. Wash the plate with eluent for four times. Then 100 μL/well samples were added to ELISA plate coated with IL1β and incubated at room temperature for 2 h. Wash the plate with eluent for four times. Each well was added with 100 μL detection antibody and incubated at 37° C. for 2 h. Wash the plate with eluent for four times. Add 100 μL of HRP labeled secondary antibody to each well. Incubate at 37° C. for 1 hour. Wash the plate with eluent for four times. Add 100 μL of A+B substrate per well. Incubate at 37° C. for 30 minutes. Add 100 μL STOP solution per well. Gently shake the plate for a few seconds. Read the absorption value at 450 nm on the EnVision multifunction reader and calculate the Inhibitory rate according to the following formula: Inhibition %=(Ave_H-Sample)/(Ave_H-Ave_L). Among them, Ave_H represents the average value of DMSO well, Sample represents the average value of compound well, and Ave_L represents the average value of 10 μM positive control well. The log value of concentration was taken as the X-axis and the percentage inhibitory rate as the Y-axis. […]

Chain of NACHT, LRR and PYD domains-containing protein 3 (Q96P20 whole entry, the tested form may be a part): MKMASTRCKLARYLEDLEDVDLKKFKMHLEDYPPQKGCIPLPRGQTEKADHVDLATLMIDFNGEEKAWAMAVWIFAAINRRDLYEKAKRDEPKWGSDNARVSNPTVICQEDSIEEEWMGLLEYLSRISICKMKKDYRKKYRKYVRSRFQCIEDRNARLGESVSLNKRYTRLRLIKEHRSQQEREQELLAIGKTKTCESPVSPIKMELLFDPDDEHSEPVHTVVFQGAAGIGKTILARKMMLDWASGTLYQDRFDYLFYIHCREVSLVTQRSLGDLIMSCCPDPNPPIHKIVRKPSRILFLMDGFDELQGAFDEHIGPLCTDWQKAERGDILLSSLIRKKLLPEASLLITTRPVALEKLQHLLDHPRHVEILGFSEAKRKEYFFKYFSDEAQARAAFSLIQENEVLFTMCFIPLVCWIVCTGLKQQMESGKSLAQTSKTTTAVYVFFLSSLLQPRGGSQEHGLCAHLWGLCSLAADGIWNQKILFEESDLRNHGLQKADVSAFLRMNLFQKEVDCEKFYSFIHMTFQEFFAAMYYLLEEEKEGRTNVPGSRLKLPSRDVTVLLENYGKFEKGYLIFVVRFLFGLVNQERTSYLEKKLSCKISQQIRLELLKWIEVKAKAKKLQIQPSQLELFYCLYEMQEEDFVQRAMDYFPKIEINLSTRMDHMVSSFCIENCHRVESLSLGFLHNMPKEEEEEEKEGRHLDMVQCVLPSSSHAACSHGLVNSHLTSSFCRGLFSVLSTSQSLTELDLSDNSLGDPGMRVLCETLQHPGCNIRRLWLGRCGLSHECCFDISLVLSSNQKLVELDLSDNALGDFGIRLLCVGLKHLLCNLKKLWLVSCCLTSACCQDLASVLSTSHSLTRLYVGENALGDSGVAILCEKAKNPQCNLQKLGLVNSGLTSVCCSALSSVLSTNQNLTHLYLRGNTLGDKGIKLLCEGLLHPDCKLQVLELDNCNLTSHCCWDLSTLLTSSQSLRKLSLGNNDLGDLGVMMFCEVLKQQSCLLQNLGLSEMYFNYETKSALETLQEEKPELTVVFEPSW

`COc1cc(-c2c(C)cc3c(c2NC(=O)NS(=O)(=O)c2ccn(C4CC(=C(F)F)C4)n2)CCC3)ccn1` (stereo unspecified) [US20240336562, Compound 22] showed an IC50 of under 25 nM.
